Values of other authors in patent US7179939B2, “Sodium ferric gluconate complexes and method of manufacture thereof” (priority 2004, dated 2007).

sodium ferric gluconate complex in sucrose
reactions associated with administration (severity) (occur at a lower rate compared to iron dextran): mild to moderate
occurrence of allergic episodes (study comparing iron dextran with sodium ferric gluconate): 3.3 allergic episodes per million doses
